This is an account of results in US10092648B2, “Selective glucagon-like-peptide-2 (GLP-2) analogues” (Zealand Pharma A/S, priority 2006, dated 2018).

Several values for one entry are separate records, joined by “and”; a condition that tells them apart may be missing. Equal entries are not always repeated.

Assay [1] deals with male C57BL mice. The assay is described as follows: In vivo stimulation of intestinal growth, 200 nmol/kg (Example 11). The settings on record: for Sensitivity index Si/Colon: relative to 1559. The protocol: The ability of further compounds to selectively stimulate small intestinal mass, relative to colon mass was determined in male C57BL mice. A similar protocol was used to that described above in Example 10 except that 200 nmol/kg of each compound was administered per day. Thus, individual groups (n=6-10) of mice were given 200 nmol/kg of each compound, s.c, once daily for three consecutive days. Other groups of animals were given either an equimolar dose of [[…]]GLP-2 (reference compound) or vehicle (phosphate buffered saline, pH 7.4; negative controls) in the same dosing regimen. Twenty-four hours after the last dose of compound the mice were sacrificed and the stomach, small intestine and the colon emptied and weighed.

Assay [2] relates to male C57BL mice. Put plainly: In vivo stimulation of stomach growth, 200 nmol/kg (Example 12). The procedure: The effects of the test compounds according to the invention were determined based on the ability of the peptides to selectively increase stomach mass, relative to vehicle control. The ability of the present compounds (ZP2395, ZP2396, ZP2400, ZP2412, ZP2394 and ZP2401) to selectively stimulate stomach mass, relative to colon mass was determined in male C57BL mice. Individual groups (n=6-10) of mice were given 200 nmol/kg of each compound, s.c, once daily for three consecutive days. For comparison purposes other groups of animals were given either an equimolar dose of [[…]]GLP-2 or vehicle (phosphate buffered saline, pH 7.4) in the same dosing regimen. Twenty-four hours after the last dose of compound had been given the mice were sacrificed and the stomach and small intestine (from the pylorus to the ileocaecal junction) emptied and weighed. To correct for slight difference in body weight (BW), the organ mass of the stomach is presented relative to BW. […] To evaluate the differential growth pattern induced by ZP compounds, compared to [[…]]GLP-2, on the stomach, the stomach-colon sensitivity index of compound X was calculated as: (Stomach/Colon)x/Stomach/(Colon)[[…]]GLP-2% Compounds with a stomach/colon sensitivity greater than or equal to 1.05 were considered relatively selective for the stomach.

Setting [3] is: 200 nmol/kg s.c. once daily for 3 days.
Setting [4] is: colon weight relative to body weight, relative to ZP1559.
[5] abbreviates: small intestine weight relative to body weight, relative to ZP1559.
Setting [6] is: 200 nmol/kg s.c. once daily for 3 days, relative to 1559.

Regarding “H-HGEGSFSDELSTILEALAASDFISWLISTKITDKKKKKK-NH2 [ZP2385]”, in the assay with male C57BL mice [1] (setting [3]), the “Colon-BW, compared to 1559 in %” value was found to be 95%; the “Preferential stimulation of epithelial growth in the small intestine (summary)” value is “preferentially stimulating epithelial growth in the small intestine”; the “SI-BW, compared to 1559 in %” value was found to be 110%; the “Selectivity for small intestinal mass relative to colon mass (FIG. 6)” value is recorded as “selectively increase small intestinal mass, relative to colon mass”. In the assay with male C57BL mice [1] (setting [3]), the “Sensitivity index Si/Colon” value is given as 1.16. In addition, the “Colon-BW, compared to 1559 in %” value with male C57BL mice [1] (setting [4]) is 95%. Moreover, in the assay with male C57BL mice [1] (setting [5]), the “SI-BW, compared to 1559 in %” value was 110%. In addition, the “Sto-BW, compared to 1559 in %” value in the assay on male C57BL mice [2] (setting [3]) came to 93%. Moreover, the “Sensitivity index Stomach/Co” value in the assay on male C57BL mice [2] (setting [6]) was found to be 0.98. In the assay on male C57BL mice [2] (ratio Stomach-BW / Colon-BW), the “Sensitivity index Stomach/Co” value amounted to 0.98.

Take “H-HGEGSFSDELATILEALAAADFIAWLIATKITDKKKKKK-NH2 [ZP2402]”: in the assay with male C57BL mice [1] (setting [3]), the “Colon-BW, compared to 1559 in %” value is on record as 113%; the “Organ selectivity (FIG. 8, unselective compounds)” value (from here on “Organ selectivity”) is given as “unselective for the small intestine, colon or stomach”; the “SI-BW, compared to 1559 in %” value amounted to 110%; the “Sensitivity index Si/Colon” value came out at 0.97. The “Sto-BW, compared to 1559 in %” value in the assay on male C57BL mice [2] (setting [3]) came out at 102%. Moreover, in the assay with male C57BL mice [2] (setting [6]), the “Sensitivity index Stomach/Co” value came out at 0.90.

With “H-HGEGSFSDELSTILEALAAADFIAWLIATKITD-NH2 [ZP2420]”, in the assay on male C57BL mice [1] (setting [3]), the “Colon-BW, compared to 1559 in %” value is 101%; the “Preferential stimulation of epithelial growth in the small intestine (summary)” value is “preferentially stimulating epithelial growth in the small intestine”; the “SI-BW, compared to 1559 in %” value was found to be 112%; the “Selectivity for small intestinal mass relative to colon mass (FIG. 6)” value is given as “selectively increase small intestinal mass, relative to colon mass”. Moreover, in the assay on male C57BL mice [1] (setting [3]), the “Sensitivity index Si/Colon” value stood at 1.11. For the same substance, the “Colon-BW, compared to 1559 in %” value in the assay on male C57BL mice [1] (setting [4]) came out at 101%. The “SI-BW, compared to 1559 in %” value in the assay with male C57BL mice [1] (setting [5]) came to 112%. Also, in the assay with male C57BL mice [2] (setting [3]), the “Sto-BW, compared to 1559 in %” value is 90%. Also, the “Sensitivity index Stomach/Co” value with male C57BL mice [2] (setting [6]) amounted to 0.89. The “Sensitivity index Stomach/Co” value with male C57BL mice [2] (ratio Stomach-BW / Colon-BW) came to 0.89.

On to “H-HGEGSFSDELATILEALAAADFISWLIATKITD-NH2 [ZP2418]”, for which, in the assay with male C57BL mice [1] (setting [3]), the “Colon-BW, compared to 1559 in %” value was 100%; the “Preferential stimulation of epithelial growth in the small intestine (summary)” value is “preferentially stimulating epithelial growth in the small intestine”; the “SI-BW, compared to 1559 in %” value was determined as 117%; the “Selectivity for small intestinal mass relative to colon mass (FIG. 6)” value is “selectively increase small intestinal mass, relative to colon mass”. Moreover, in the assay with male C57BL mice [1] (setting [3]), the “Sensitivity index Si/Colon” value was determined as 1.17. The “Colon-BW, compared to 1559 in %” value in the assay with male C57BL mice [1] (setting [4]) turned out to be 100%. The “SI-BW, compared to 1559 in %” value with male C57BL mice [1] (setting [5]) is 117%. In addition, the “Sto-BW, compared to 1559 in %” value in the assay on male C57BL mice [2] (setting [3]) is 91%. In addition, the “Sensitivity index Stomach/Co” value in the assay with male C57BL mice [2] (setting [6]) was 0.91. For the same substance, the “Sensitivity index Stomach/Co” value in the assay with male C57BL mice [2] (ratio Stomach-BW / Colon-BW) worked out at 0.91.

With “H-HGEGSFSDELATILESLAAADFIAWLIATKITDKKKKKK-NH2 [ZP2415]”, in the assay on male C57BL mice [1] (setting [3]), the “Colon-BW, compared to 1559 in %” value stood at 106%; the “Organ selectivity” value is “unselective for the small intestine, colon or stomach”; the “SI-BW, compared to 1559 in %” value was determined as 106%; the “Sensitivity index Si/Colon” value amounted to 1.00. In the assay with male C57BL mice [2] (setting [3]), the “Sto-BW, compared to 1559 in %” value worked out at 100%. Also, the “Sensitivity index Stomach/Co” value in the assay on male C57BL mice [2] (setting [6]) was found to be 0.94.

Take “H-HGEGSFSDELATILESLAASDFISWLISTKITDKKKKKK-NH2 [ZP2386]”: in the assay with male C57BL mice [1] (setting [3]), the “Colon-BW, compared to 1559 in %” value was 111%; the “Organ selectivity” value was “unselective for the small intestine, colon or stomach”; the “SI-BW, compared to 1559 in %” value is 113%; the “Sensitivity index Si/Colon” value is 1.02. Moreover, in the assay on male C57BL mice [2] (setting [3]), the “Sto-BW, compared to 1559 in %” value was found to be 95%. Further, the “Sensitivity index Stomach/Co” value with male C57BL mice [2] (setting [6]) is on record as 0.86.

Consider “H-HGEGSFSDELFTILEFLAASDFISWLISTKITDKKKKKK-NH2 [ZP2396]”, for which, in the assay on male C57BL mice [1] (setting [3]), the “Colon-BW, compared to 1559 in %” value amounted to 102%; the “SI-BW, compared to 1559 in %” value was 104%; the “Sensitivity index Si/Colon” value turned out to be 1.02. Further, the “Colon-BW, compared to 1559 in %” value in the assay on male C57BL mice [1] (setting [4]) is recorded as 102%. Further, the “SI-BW, compared to 1559 in %” value in the assay on male C57BL mice [1] (setting [5]) turned out to be 104%. Besides, in the assay on male C57BL mice [2] (setting [3]), the “Preferential stimulation of epithelial growth in the stomach (summary)” value is “preferentially stimulating epithelial growth in the stomach”; the “Selectivity for stomach mass relative to colon mass (FIG. 7)” value was “selectively increase stomach mass, relative to colon mass”; the “Sto-BW, compared to 1559 in %” value stood at 117%. Moreover, the “Sensitivity index Stomach/Co” value in the assay on male C57BL mice [2] (setting [6]) is given as 1.15. Further, in the assay on male C57BL mice [2] (ratio Stomach-BW / Colon-BW), the “Sensitivity index Stomach/Co” value is 1.16 and 1.15.

Turning to “H-HGEGSFSDELLTILELLAASDFISWLISTKITDKKKKKK-NH2 [ZP2394]”, in the assay on male C57BL mice [1] (setting [3]), the “Colon-BW, compared to 1559 in %” value came out at 96%; the “SI-BW, compared to 1559 in %” value is 105%; the “Sensitivity index Si/Colon” value is listed as 1.09. In addition, the “Colon-BW, compared to 1559 in %” value in the assay on male C57BL mice [1] (setting [4]) was determined as 96%. The “SI-BW, compared to 1559 in %” value in the assay on male C57BL mice [1] (setting [5]) was 105%. Further, in the assay with male C57BL mice [2] (setting [3]), the “Preferential stimulation of epithelial growth in the stomach (summary)” value was “preferentially stimulating epithelial growth in the stomach”; the “Selectivity for stomach mass relative to colon mass (FIG. 7)” value is given as “selectively increase stomach mass, relative to colon mass”; the “Sto-BW, compared to 1559 in %” value turned out to be 109%. In the assay on male C57BL mice [2] (setting [6]), the “Sensitivity index Stomach/Co” value amounted to 1.14. Besides, the “Sensitivity index Stomach/Co” value in the assay with male C57BL mice [2] (ratio Stomach-BW / Colon-BW) came to 1.14.

In the case of “H-HGEGSFSDELNTILESLAASDFISWLISTKITDKKKKKK-NH2 [ZP2382]”, in the assay with male C57BL mice [1] (setting [3]), the “Colon-BW, compared to 1559 in %” value is on record as 106%; the “Organ selectivity” value is “unselective for the small intestine, colon or stomach”; the “SI-BW, compared to 1559 in %” value stood at 103%; the “Sensitivity index Si/Colon” value is reported as 0.97. Moreover, in the assay on male C57BL mice [2] (setting [3]), the “Sto-BW, compared to 1559 in %” value was 101%. Besides, in the assay with male C57BL mice [2] (setting [6]), the “Sensitivity index Stomach/Co” value turned out to be 0.95.

Consider “H-HGEGSFSDELATILEALAASDFIAWLIATKITD-NH2 [ZP2417]”, for which, in the assay on male C57BL mice [1] (setting [3]), the “Colon-BW, compared to 1559 in %” value stood at 106%; the “Preferential stimulation of epithelial growth in the small intestine (summary)” value is given as “preferentially stimulating epithelial growth in the small intestine”; the “SI-BW, compared to 1559 in %” value worked out at 119%; the “Selectivity for small intestinal mass relative to colon mass (FIG. 6)” value is “selectively increase small intestinal mass, relative to colon mass”. Moreover, the “Sensitivity index Si/Colon” value in the assay on male C57BL mice [1] (setting [3]) is 1.12. Moreover, the “Colon-BW, compared to 1559 in %” value in the assay on male C57BL mice [1] (setting [4]) was found to be 106%. Also, the “SI-BW, compared to 1559 in %” value in the assay on male C57BL mice [1] (setting [5]) amounted to 119%. The “Sto-BW, compared to 1559 in %” value with male C57BL mice [2] (setting [3]) amounted to 90%. The “Sensitivity index Stomach/Co” value with male C57BL mice [2] (setting [6]) turned out to be 0.85. In addition, the “Sensitivity index Stomach/Co” value with male C57BL mice [2] (ratio Stomach-BW / Colon-BW) worked out at 0.85.

As for “H-HGEGSFSDELATILEALAASDFISWLISTKITDKKKKKK-NH2 [ZP2381]”, in the assay on male C57BL mice [1] (setting [3]), the “Colon-BW, compared to 1559 in %” value is 104%; the “Preferential stimulation of epithelial growth in the small intestine (summary)” value was “preferentially stimulating epithelial growth in the small intestine”; the “SI-BW, compared to 1559 in %” value turned out to be 123%; the “Selectivity for small intestinal mass relative to colon mass (FIG. 6)” value is given as “selectively increase small intestinal mass, relative to colon mass”. The “Sensitivity index Si/Colon” value in the assay with male C57BL mice [1] (setting [3]) was 1.18. Moreover, the “Colon-BW, compared to 1559 in %” value in the assay on male C57BL mice [1] (setting [4]) is reported as 104%. In addition, the “SI-BW, compared to 1559 in %” value with male C57BL mice [1] (setting [5]) was found to be 123%. Moreover, the “Sto-BW, compared to 1559 in %” value in the assay on male C57BL mice [2] (setting [3]) amounted to 92%. The “Sensitivity index Stomach/Co” value in the assay with male C57BL mice [2] (setting [6]) was 0.88. Besides, in the assay with male C57BL mice [2] (ratio Stomach-BW / Colon-BW), the “Sensitivity index Stomach/Co” value amounted to 0.88.
